# Measured values taken from ChEMBL document CHEMBL3124752, “Small molecule disruptors of the glucokinase-glucokinase regulatory protein interaction: 1. Discovery of a novel tool compound for in vivo proof-of-concept” (J Med Chem, 2014).
# Key:
# Rattus norvegicus [1] = species on record: Rattus norvegicus; assay: Toxicity in Zucker diabetic fatty rat assessed as change in plasma triglyceride level; assay type: organism-based; conditions: in vivo
# Rattus norvegicus [2] = species on record: Rattus norvegicus; assay: Toxicity in Zucker diabetic fatty rat assessed as change in plasma insulin level; assay type: organism-based; conditions: in vivo
# Rattus norvegicus [3] = assay: Toxicity in Wistar rat assessed as induction of hypoglycemia at 100 mg/kg, po; assay type: organism-based; set-up: dose 100 mg/kg, route oral; conditions: in vivo
# Rattus norvegicus [4] = assay: fCmax in Wistar rat at 100 mg/kg, po; assay type: ADME, organism-based; set-up: dose 100 mg/kg, route oral; conditions: in vivo
# Rattus norvegicus [5] = species on record: Rattus norvegicus; assay: fCmax in Sprague-Dawley rat; assay type: ADME, organism-based; conditions: in vivo
# [6] = Fraction unbound in Sprague-Dawley rat plasma at 2 mg/kg, iv and 10 mg/kg, po; assay type: ADME, organism-based; conditions: other: intravenous and oral
# [7] = Oral bioavailability in Sprague-Dawley rat at 10 mg/kg; assay type: ADME, organism-based; conditions: in vivo
# [8] = Cmax in Sprague-Dawley rat at 10 mg/kg, po; assay type: ADME, organism-based; set-up: dose 10 mg/kg, route oral; conditions: in vivo
# [9] = Intrinsic clearance in Sprague-Dawley rat liver microsomes at 1 uM after 30 mins in presence of NADPH; assay type: ADME; conditions: read-out: CLH
# Hexokinase-4 = biological target: T1, Hexokinase-4 (Homo sapiens, UniProt P35557); assay: Activation of human glucokinase
# T1 sequence (P35557 whole entry): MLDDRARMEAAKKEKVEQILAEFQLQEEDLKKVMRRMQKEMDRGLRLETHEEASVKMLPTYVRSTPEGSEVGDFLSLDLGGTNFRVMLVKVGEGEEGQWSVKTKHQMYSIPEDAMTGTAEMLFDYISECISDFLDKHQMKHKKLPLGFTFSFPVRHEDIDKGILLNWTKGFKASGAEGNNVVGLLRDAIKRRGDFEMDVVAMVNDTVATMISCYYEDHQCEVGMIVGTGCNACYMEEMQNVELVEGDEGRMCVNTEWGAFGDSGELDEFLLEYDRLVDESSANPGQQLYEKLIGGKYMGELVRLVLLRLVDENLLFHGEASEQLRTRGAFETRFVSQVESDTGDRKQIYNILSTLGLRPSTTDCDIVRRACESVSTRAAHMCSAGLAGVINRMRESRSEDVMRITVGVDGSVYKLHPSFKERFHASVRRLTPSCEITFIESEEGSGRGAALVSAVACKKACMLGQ
# [10] = biological target: T2, Glucokinase regulatory protein (Rattus norvegicus, UniProt Q07071); assay: Inhibition of GKRP-GK interaction in rat primary hepatocytes assessed as translocation of GK from nucleus to cytoplasm preincubated for 20 mins followed by glucose addition measured after 40 mins by fluorescence assay; assay type: cell-based, Hepatocyte
# T2 sequence (Q07071 whole entry): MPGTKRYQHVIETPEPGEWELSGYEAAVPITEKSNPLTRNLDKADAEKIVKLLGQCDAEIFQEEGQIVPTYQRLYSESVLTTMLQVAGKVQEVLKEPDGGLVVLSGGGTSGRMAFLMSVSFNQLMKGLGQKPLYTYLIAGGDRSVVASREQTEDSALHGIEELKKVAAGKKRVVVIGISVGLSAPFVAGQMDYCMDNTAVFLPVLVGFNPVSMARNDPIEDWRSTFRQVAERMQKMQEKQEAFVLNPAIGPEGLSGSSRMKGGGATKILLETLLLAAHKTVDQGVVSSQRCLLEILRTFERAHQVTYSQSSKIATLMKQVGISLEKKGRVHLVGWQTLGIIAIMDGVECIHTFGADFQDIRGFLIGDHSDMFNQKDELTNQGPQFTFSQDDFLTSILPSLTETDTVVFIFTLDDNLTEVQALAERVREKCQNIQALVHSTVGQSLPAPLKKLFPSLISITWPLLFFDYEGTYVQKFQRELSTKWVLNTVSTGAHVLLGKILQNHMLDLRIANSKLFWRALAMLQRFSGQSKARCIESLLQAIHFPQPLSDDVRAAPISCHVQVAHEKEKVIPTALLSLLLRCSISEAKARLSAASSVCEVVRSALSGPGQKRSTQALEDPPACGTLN
# [11] = Volume of distribution at steady state in Sprague-Dawley rat at 2 mg/kg, iv; assay type: ADME, organism-based; set-up: dose 2 mg/kg, route intravenous; conditions: in vivo, read-out: Vdss
# [12] = Clearance in Sprague-Dawley rat at 2 mg/kg, iv; assay type: ADME, organism-based; set-up: dose 2 mg/kg, route intravenous; conditions: in vivo
compound,measurement,setting,value
C[C@H]1COCCN1C[C@H]1CN(S(=O)(=O)c2cccs2)CCN1c1ccc([C@@](C)(O)C(F)(F)F)cc1,Activity,Rattus norvegicus [1],Non-toxic
same,Activity,Rattus norvegicus [2],Non-toxic
same,Activity,Rattus norvegicus [3],Toxic
same,fCmax,Rattus norvegicus [4],0.056 µM
same,fCmax,Rattus norvegicus [5],0.004 µM
same,fraction unbound,[6],0.037
same,bioavailability,[7],7.86%
same,Cmax,[8],110 nM
same,microsomal CLint at 1 µM,[9],608 µL/min/mg
same,EC50,Hexokinase-4,> 50 µM
same,EC50,[10],0.082 µM
O=S(=O)(c1cccs1)N1CCN(c2ccc(C(O)(C(F)(F)F)C(F)(F)F)cc2)CC1,fraction unbound,[6],0.0062
same,bioavailability,[7],28%
same,Cmax,[8],350 nM
same,Vd,[11],6.81 L/kg
same,clearance,[12],44 mL/min/kg
same,EC50,Hexokinase-4,> 50 µM
O=S(=O)(c1cccs1)N1CCN(c2ccc(C(O)(C(F)(F)F)C(F)(F)F)cc2)[C@@H](CC2CCOCC2)C1,EC50,[10],5.47 µM
O=S(=O)(c1cccs1)N1CCN(c2ccc(C(O)(C(F)(F)F)C(F)(F)F)cc2)[C@@H](CN2CCOCC2)C1,EC50,[10],3.99 µM
C[C@H]1COCCN1C[C@H]1CN(S(=O)(=O)c2cccs2)CCN1c1ccc(C(O)(C(F)(F)F)C(F)(F)F)cc1,EC50,[10],1.81 µM
C[C@@](O)(c1ccc(N2CCN(S(=O)(=O)c3cccs3)C[C@@H]2CC2CCOCC2)cc1)C(F)(F)F,EC50,[10],0.89 µM
C[C@](O)(c1ccc(N2CCN(S(=O)(=O)c3cccs3)C[C@@H]2CC2CCOCC2)cc1)C(F)(F)F,EC50,[10],4.76 µM
C[C@H]1COCCN1C[C@H]1CN(S(=O)(=O)c2cccs2)CCN1c1ccc([C@](C)(O)C(F)(F)F)cc1,EC50,[10],0.22 µM
